According to US20250084062A1, “SUBSTITUTED QUINOLINE DERIVATIVE” (ASTELLAS PHARMA INC., priority 2021, published 2025):
Structures can show the parent of a compound that is named as a salt. Where two headings read alike, the source gives them in different places.

Tested on: acetylcholine receptor clustering in C2Cl2 cells
Assay: Induction of acetylcholine receptor clustering in mouse myoblasts C2Cl2 cells (Test Example 1)
Type: cell-based
Conditions: for Emax / EC50: Mus musculus; for Emax: Myoblast, read-out: Max; for EC50: Myotube
Method: Test Example 1: Evaluation of the Induction of Acetylcholine Receptor Clustering in Mouse Myoblasts C2Cl2 Cells
Induction of acetylcholine receptor clustering by the test compound was evaluated by using fluorescently-labeled Bungarotoxin to image and quantify the acetylcholine receptor cluster region induced by the differentiation of myoblasts into myotubes, and measure the change in area. The following test method was optimized with reference to various reports including FEBS let., 586, 3111-3116 (2012). When a concentration response curve is obtained by plotting the logarithmic concentration of the test compound on the horizontal axis and the ratio of the area of acetylcholine receptor cluster region on the vertical axis, the inducing action of the test compound can be determined.
A concentration response curve as an index indicating acetylcholine receptor clustering inducing action of the test compound in mouse C2Cl2 cells was prepared. C2Cl2 cells (ATCC Number: CRL-1772) were seeded at about 5000 cells/well on a 384-well plate (354667; Corning) coated with type I collagen and allowed to incubate at 37 degrees Celsius overnight in DMEM+20% FBS+1% penicillin/streptomycin medium. The following day, the medium was removed and replaced with a differentiation medium containing DMEM+2% FBS+1% penicillin/streptomycin, and allowed to incubate at 37 degrees Celsius for 4 days. The test compound was dissolved in DMSO and added to a differentiation medium containing 0.1 ng/ml Agrin (550-AG-100; R&D systems) such that the final concentration was […] (3-fold serial dilution) or 0.00017 to 3.3 μM (3-fold serial dilution). The final concentration of DMSO was 0.3%. After the 4 days of incubation, the differentiation medium was replaced with a differentiation medium containing the test compound and 0.1 ng/ml Agrin or a differentiation medium containing 0.1 ng/ml Agrin or 10 ng/ml Agrin alone, and allowed to incubate at 37 degrees Celsius overnight. The next day, 10 μl of DMEM containing Bungarotoxin-Alexa488 (B13422; Life technologies) was added to the differentiation medium containing test compound and Agrin and Agrin alone so that the final concentration of Bungarotoxin-Alexa488 was 1 μg/ml, and was allowed to incubate at 37 degrees Celsius for 1 hour to label the acetylcholine receptor. After removing all the medium, 4% PFA was added to each well and allowed to incubate at room temperature for 10 minutes, then washed with PBS, and allowed to incubate at room temperature for 30 minutes in PBS containing 5% goat serum and 0.3% Triton X-100. After removing the PBS solution, PBS-Tween20 (28352; Thermo fisher scientific) containing Anti-Myosin Heavy Chain eFluor (registered trademark) 660 (50-6503-82; eBioscience) and DAPI (340-07971; Dojindo) was added to each well and allowed to incubate at room temperature for 1 hour to label the myotubes and nuclei. After washing three times with PBS-Tween20, the fluorescence was imaged using IN Cell Analyzer 6000 (GE Healthcare). […] The response of control group (1) was regarded as 0% and the response of the control group (2) was regarded as 100%. For quantification, the signal of only the acetylcholine receptor present in the myotube was used to eliminate non-specific fluorescence.
EC50 and Max value were used as indicators of activity in order to quantitatively evaluate the inducing action of the test compound on acetylcholine receptor clustering. EC50 value is a test compound concentration which indicates 50% in terms of the area of acetylcholine receptor cluster region compared to that of 10 ng/ml Agrin (regarded as 100%) in the concentration response curve. EC50 was calculated by nonlinear regression analysis from the concentration response curve using the area of the cluster region of the test compound as an index. Max value is the maximum response value. […]

[1] = maximum response, area of acetylcholine receptor cluster region vs 10 ng/ml Agrin (100%), 0.1 ng/ml Agrin = 0%
[2] = C2Cl2 myotubes, with 0.1 ng/ml Agrin, concentration giving 50% of cluster area of 10 ng/ml Agrin (100%), read-out: EC50

SMILES	EC50 [2] [nM]	Emax [1] [%]	also measured
Cc1c(F)c(-c2c(F)cc(S(=O)(=O)N3CC[C@H](F)C3)cc2F)nc2cc(C(=O)NC(C)(C)CC(=O)O)ccc12 [Example 54]	1490	60.8	–
CNCCNC(=O)c1ccc2c(C)cc(-c3c(F)cc(S(=O)(=O)N4CC[C@H](F)C4)cc3F)nc2n1 [Example 61]	26	92.4	–
Cc1cc(-c2c(F)cc(S(=O)(=O)N3CC[C@H](F)C3)cc2F)nc2nc(C3=CCC(C(=O)O)CC3)ccc12 (some centres unmarked) [Example 36]	392	80.2	–
Cc1c(F)c(-c2c(F)cc(S(=O)(=O)N3CC[C@H](F)C3)cc2F)nc2cc(CCN)ccc12 [Example 56]	53	97	–
CNCCNC(=O)c1ccc2c(C)cc(-c3c(F)cc(S(=O)(=O)N4CC[C@H](F)C4)cc3F)c(F)c2n1 [Example 15, 7-{2,6-difluoro-4-[(3S)-3-fluoropyrrolidine-1-sulfonyl]phenyl}-8-fluoro-5-methyl-N-[2-(methylamino)ethyl]quinoline-2-carboxamide hydrochloride]	2	105	–
COCc1cc(S(=O)(=O)N2CC[C@H](F)C2)ccc1-c1cc(C)c2ccc(C(=O)O)cc2n1 [Example 32]	–	38.8	response, % at 30 μM (vs 10 ng/ml Agrin (100%)): 38.8% at 30 μM
Cc1c(F)c(-c2c(F)cc(S(=O)(=O)N3CCCC34CC4)cc2F)nc2cc(C(=O)O)ccc12 [Example 25]	182	105	–
Cc1cc(-c2c(F)cc(S(=O)(=O)N3CC[C@H](F)C3)cc2F)nc2nc(C3CCC(C(=O)O)CC3)ccc12 (some centres unmarked) [Example 37]	3220	70.1	–
CO[C@@H]1CN(S(=O)(=O)c2ccc(-c3cc(C)c4ccc(C(=O)O)cc4n3)c(F)c2)C[C@H]1F [Example 29]	–	46.2	response, % at 30 μM (vs 10 ng/ml Agrin (100%)): 46.2% at 30 μM
Cc1cc(-c2c(F)cc(S(=O)(=O)N3CC[C@H](F)C3)cc2F)cc2cc(C(=O)O)ccc12 [Example 67]	–	–	Emax: 94.3%; EC50: 15 nM
Cc1c(F)c(-c2c(F)cc(S(=O)(=O)N3CCCC3(C)C)cc2F)nc2cc(C(=O)O)ccc12 [Example 26]	19	99.8	–
Cc1cc(-c2ccc(S(=O)(=O)N3CC[C@H](F)C3)cc2F)nc2cc(C(=O)NS(=O)(=O)C3CC3)ccc12 [Example 9, N-(cyclopropanesulfonyl)-2-{2-fluoro-4-[(3S)-3-fluoropyrrolidine-1-sulfonyl]phenyl}-4-methylquinoline-7-carboxamide]	–	34.9	response, % at 1.1 μM (at 1.1 μM, vs 10 ng/ml Agrin (100%)): 34.9% at 1.1 μM
Cc1cc(-c2c(F)cc(S(=O)(=O)N3CC[C@H](F)C3)cc2F)nc2nc(C3=CCNCC3)ccc12 [Example 62]	–	–	Emax: 86.4%; EC50: 1 nM
Cc1cc(-c2ccc(S(=O)(=O)N3CC[C@H](F)C3)cc2CO)nc2cc(C(=O)O)ccc12 [Example 31]	–	48.8	response, % at 30 μM (vs 10 ng/ml Agrin (100%)): 48.8% at 30 μM
Cc1cc(-c2c(F)cc(S(=O)(=O)N3CC[C@H](F)C3)cc2F)nc2nc(C3CCN(C)CC3)ccc12 [Example 17, 2-{2,6-difluoro-4-[(3S)-3-fluoropyrrolidine-1-sulfonyl]phenyl}-4-methyl-7-(1-methylpiperidin-4-yl)-1,8-naphthyridine hydrochloride]	65	78.7	–
CNCCCc1ccc2c(C)c(F)c(-c3c(F)cc(S(=O)(=O)N4CC[C@H](F)C4)cc3F)nc2c1 [Example 16, 3-(2-{2,6-difluoro-4-[(3S)-3-fluoropyrrolidine-1-sulfonyl]phenyl}-3-fluoro-4-methylquinolin-7-yl)-N-methylpropan-1-amine hydrochloride]	45	91.1	–

Second part, led by results:

EC50 [2] [nM]	SMILES	Emax [1] [%]	also measured
3520	Cc1cc(-c2ccc(S(=O)(=O)N3CCC[C@H](O)C3)cc2F)nc2cc(C(=O)O)ccc12 [Example 50]	70.5	–
4030	Cc1cc(-c2ccc(S(=O)(=O)N3C[C@@H](F)C[C@H]3CO)cc2F)nc2cc(C(=O)O)ccc12 [Example 28]	74.2	–
53	Cc1cc(-c2ccc(S(=O)(=O)N3CC[C@H](F)C3)cc2F)nc2cc(C(=O)NCC3(O)CNC3)ccc12 [Example 65]	84	–
3750	Cc1cc(-c2ccc(S(=O)(=O)N3CCC[C@H]3CO)cc2F)nc2cc(C(=O)O)ccc12 [Example 48]	74	–
1090	Cc1cc(-c2ccc(S(=O)(=O)N3C[C@@H](O)[C@H](F)C3)cc2F)nc2cc(C(=O)O)ccc12 [Example 49]	81.9	–
103	Cc1cc(-c2ccc(S(=O)(=O)N3C[C@@H](F)[C@H](F)C3)cc2F)nc2cc(C(=O)O)ccc12 [Example 27]	94.6	–
65	Cc1cc(-c2c(F)cc(S(=O)(=O)N3CC[C@H](F)C3)cc2F)nc2cc(CC(=O)O)ccc12 [Example 33]	86.1	–
16	Cc1cc(-c2c(F)cc(S(=O)(=O)N3CC[C@H](F)C3)cc2F)nc2cc(CCC(=O)O)ccc12 [Example 34]	94.1	–
49	CNCCN(C)C(=O)c1ccc2c(C)cc(-c3c(F)cc(S(=O)(=O)N4CC[C@H](F)C4)cc3F)nc2c1 [Example 59]	95.8	–
1120	Cc1cc(-c2ccc(S(=O)(=O)N3CC[C@H](F)C3)cc2C#N)nc2cc(C(=O)O)ccc12 [Example 30]	94.7	–
7160	Cc1cc(-c2ccc(S(=O)(=O)N3CC[C@H](F)C3)cc2F)nc2c(F)c(N3CCNCC3=O)ccc12 [Example 55]	38.9	–
724	Cc1cc(-c2c(F)cc(S(=O)(=O)N3CCC(F)CC3)cc2F)nc2nc(C(=O)O)ccc12 [Example 38]	78.5	–
159	Cc1cc(S(=O)(=O)N2CC[C@H](F)C2)ccc1-c1nc2cc(C(=O)O)ccc2c(C)c1F [Example 51]	77.8	–
13	Cc1c(F)c(-c2c(F)cc(S(=O)(=O)N3CC[C@H](F)C3)cc2F)nc2cc(C(=O)O)ccc12 [Example 20, 2-{2,6-difluoro-4-[(3S)-3-fluoropyrrolidine-1-sulfonyl]phenyl}-3-fluoro-4-methylquinoline-7-carboxylic acid]	86.5	–
2570	Cc1cc(-c2c(F)cc(S(=O)(=O)N3CC[C@H](F)C3)cc2F)nc2nc(C(=O)O)ccc12 [Example 39]	78.2	–
11	Cc1c(F)c(-c2c(F)cc(S(=O)(=O)N3CCC[C@@H]3C)cc2F)nc2cc(C(=O)O)ccc12 [Example 24]	92.3	–
33	Cc1cc(-c2c(F)cc(S(=O)(=O)N3CC[C@H](F)C3)cc2F)nc2cc(C(=O)NC[C@H]3COCCN3)ccc12 [Example 52]	94.2	–
10	Cc1cc(-c2c(F)cc(S(=O)(=O)N3CC[C@H](F)C3)cc2F)cc2nc(N3CCNCC3)ccc12 [Example 66]	88.4	–
95	Cc1cc(-c2ccc(S(=O)(=O)N3CCC(F)CC3)cc2F)nc2cc(C(=O)O)ccc12 [Example 5, 2-[2-fluoro-4-(4-fluoropiperidine-1-sulfonyl)phenyl]-4-methylquinoline-7-carboxylic acid]	86.8	–
21	Cc1cc(-c2c(F)cc(S(=O)(=O)N3CC[C@H](F)C3)cc2F)nc2cc(C(=O)NCCN(C)C)ccc12 [Example 43]	91.6	–
33	Cc1cc(-c2c(F)cc(S(=O)(=O)N3CCC(F)CC3)cc2F)nc2cc(C(=O)NCCCN)ccc12 [Example 58]	89.6	–
